Laboratory results: US10647675B2 (priority 2015, dated 2020)
Values after ≈ are worked out from the molar mass of the structure shown.

Tests used:
[1] = system: Trichophyton rubrum KD-1130; assay: Antifungal activity evaluation test: minimum inhibitory concentration (MIC), broth dilution by reference to CLSI M38-A2; type: cell-based; settings: KD1130, read-out: MIC (T. rubrum)
Procedure, shortened: (§1)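 Broth microdilution after CLSI M38-A2: 2-fold DMSO dilution series in MOPS-buffered RPMI 1640 pH 7.0, inoculum 2×10^3 cells/mL final. Incubated 35° C for 4 days; MIC (μg/mL) is lowest concentration giving visually ≥80% growth inhibition versus growth control.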

[2] = system: Trichophyton mentagrophytes SM-110; assay: as above; type: cell-based; settings: SM110, read-out: MIC (T. menta.)
Procedure, shortened: as §1

Row | MIC [1] [µg/mL] | MIC [2] [µg/mL] | Compound
1 | ≤ 0.1 | ≤ 0.1 | CCOC(=O)c1ccc(Oc2ncccc2-c2cnccc2OCC)cc1 [I-415, ethyl 4-{[4′-ethoxy-(3,3′-bipyridin)-2-yl]oxy}benzoate]
2 | ≤ 0.1 | 0.2 to 0.78 (≈ 0.555 to 2.16 µM) | COc1ccccc1-c1c(C)ccnc1Oc1ccc(C(F)(F)F)nc1 [I-65, 3-(2-methoxyphenyl)-4-methyl-2-{[6-(trifluoromethyl)pyridin-3-yl]oxy}pyridine]
3 | ≤ 0.1 | ≤ 0.1 | Cc1cnn(-c2ccc(Oc3ncccc3-c3cnccc3C)cc2)c1 [I-432]
4 | ≤ 0.1 | ≤ 0.1 | COc1ncccc1-c1nccnc1Oc1ccc2c(c1)CCCC2 [I-316, 2-(2-methoxypyridin-3-yl)-3-[(5,6,7,8-tetrahydronaphthalen-2-yl)oxy]pyrazine]
5 | ≤ 0.1 | ≤ 0.1 | Cc1cc(-c2ccc(Oc3ncccc3-c3cnccc3C)cc2)on1 [I-425]
6 | ≤ 0.1 | ≤ 0.1 | COc1cc(F)ccc1-c1cccnc1Oc1cnc(N(C)C)c(C)c1 [I-369]
7 | 0.2 to 0.78 (≈ 0.563 to 2.2 µM) | 0.2 to 0.78 (≈ 0.563 to 2.2 µM) | FC(F)(F)c1ccc(Oc2ncccc2-c2cccc3cc[nH]c23)cn1 [I-42, 7-(2-{[6-(trifluoromethyl)pyridin-3-yl]oxy}pyridin-3-yl)-1H-indole]
8 | ≤ 0.1 | ≤ 0.1 | COc1ccc(OC)c(-c2cccnc2Oc2ccc(C(C)(F)F)nc2)n1 [I-96, 2′-{[6-(1,1-difluoroethyl)pyridin-3-yl]oxy}-3,6-dimethoxy-2,3′-bipyridine]
9 | ≤ 0.1 | ≤ 0.1 | COc1ccncc1-c1cccnc1Oc1ccc(C(C)(F)F)cc1 [I-297, 2-[4-(1,1-difluoroethyl)-phenoxy]-4′-methoxy-3,3′-bipyridine]
10 | 0.2 to 0.78 (≈ 0.628 to 2.45 µM) | ≤ 0.1 | CCc1ccc(Oc2ncccc2-c2cccc3c2OCC3)cn1 [I-125]
11 | 0.2 to 0.78 (≈ 0.561 to 2.19 µM) | 0.2 to 0.78 (≈ 0.561 to 2.19 µM) | FC(F)(F)c1ccc(Oc2ncccc2-c2ccccc2C2CC2)cn1 [I-59, 3-(2-cyclopropylphenyl)-2-{[6-(trifluoromethyl)pyridin-3-yl]oxy}pryidine]
12 | 0.2 to 0.78 | 0.2 to 0.78 | COc1ccccc1-c1cccnc1Oc1ccc(C(F)(F)COS(=O)(=O)C(F)(F)F)nc1 [I-80, 2,2-difluoro-2-(5-{[3-(2-methoxyphenyl)pyridin-2-yl]oxy}pyridin-2-yl)ethyl trifluoromethanesulfonate]
13 | 0.2 to 0.78 (≈ 0.547 to 2.13 µM) | 0.2 to 0.78 (≈ 0.547 to 2.13 µM) | CC(F)(F)c1ccc(Oc2ncccc2-c2cncc(F)c2Cl)cn1 [I-97, 4′-chloro-2-{[6-(1,1-difluoroethyl)pyridin-3-yl]oxy}-5′-fluoro-3,3′-bipyridine]
14 | ≤ 0.1 | ≤ 0.1 | CC(F)(F)c1ccc(Oc2ncccc2-c2cccc3ccnn23)cc1 [I-307, 7-{2-[4-(1,1-difluoroethyl)-phenoxy]pyridin-3-yl}pyrazolo[1,5-a]pyridine]
15 | ≤ 0.1 | ≤ 0.1 | Cc1c(F)cncc1-c1cccnc1Oc1ccc(C(F)(F)F)cc1 [I-208]
16 | ≤ 0.1 | ≤ 0.1 | FC(F)(F)c1ccc(Nc2ncncc2-c2cccc3ccnn23)cc1 [I-362, 5-(pyrazolo[1,5-a]pyridin-7-yl)-N-[4-(trifluoromethyl)phenyl]pyrimidin-4-amine]
17 | ≤ 0.1 | ≤ 0.1 | CCN(C)c1ncc(Oc2ncccc2-c2cccc3c2OCC3)cn1 [I-340, 5-{[3-(2,3-dihydrobenzofuran-7-yl)pyridin-2-yl]oxy}-N-ethyl-N-methylpyrimidin-2-amine]
18 | 0.2 to 0.78 (≈ 0.573 to 2.23 µM) | 0.2 to 0.78 (≈ 0.573 to 2.23 µM) | COc1c(-c2cccnc2Oc2ccc(C(F)(F)F)cc2)cnn1C [I-223, 3-(5-methoxy-1-methyl-1H-pyrazol-4-yl)-2-[4-(trifluoromethyl)phenoxy]pyridine]
19 | 0.2 to 0.78 (≈ 0.55 to 2.15 µM) | ≤ 0.1 | CC(F)(F)c1ccc(Oc2ncccc2-c2ccnc3ccccc23)cn1 [I-108, 4-(2-{[6-(1,1-difluoroethyl)pyridin-3-yl]oxy}pyridin-3-yl)quinoline]
20 | ≤ 0.1 | ≤ 0.1 | COc1ccncc1-c1cccnc1Oc1ccc(C(=O)OC(C)C)cc1 [I-418]
21 | 0.2 to 0.78 (≈ 0.544 to 2.12 µM) | ≤ 0.1 | FC(F)(F)c1ccc(Oc2ncccc2-c2cccc3ncccc23)cn1 [I-36, 5-(2-{[6-(trifluoromethyl)pyridin-3-yl]oxy}pyridin-3-yl)quinoline]
22 | 0.2 to 0.78 (≈ 0.507 to 1.98 µM) | 0.2 to 0.78 (≈ 0.507 to 1.98 µM) | COCC(F)(F)c1ccc(Oc2ncccc2-c2cccc3nccnc23)cn1 [I-168, 5-(2-{[6-(1,1-difluoro-2-methoxyethyl)pyridin-3-yl]oxy}pyridin-3-yl)quinoxaline]
23 | 0.2 to 0.78 (≈ 0.523 to 2.04 µM) | 0.2 to 0.78 (≈ 0.523 to 2.04 µM) | COCC(F)(F)c1ccc(Oc2ncccc2-c2cccc3ccnn23)cn1 [I-167, 7-(2-{[6-(1,1-difluoro-2-methoxyethyl)pyridin-3-yl]oxy}pyridin-3-yl)pyrazolo[1,5-a]pyridine]

Row | MIC [1] [µg/mL] | MIC [2] [µg/mL] | Compound
24 | 0.2 to 0.78 (≈ 0.555 to 2.16 µM) | 0.2 to 0.78 (≈ 0.555 to 2.16 µM) | COc1ccncc1-c1cccnc1Oc1ccc(CC(F)(F)F)cc1 [I-249, 4′-methoxy-2-[4-(2,2,2-trifluoroethyl)phenoxy]-3,3′-bipyridine]
25 | 1.56 to 6.25 (≈ 4.38 to 17.5 µM) | 1.56 to 6.25 (≈ 4.38 to 17.5 µM) | FC(F)(F)c1ccc(Oc2ncccc2-c2cncc3nccn23)cc1 [I-231, 5-{2-[4-(trifluoromethyl)phenoxy]pyridin-3-yl}imidazo[1,2-a]pyrazine]
26 | 0.2 to 0.78 (≈ 0.472 to 1.84 µM) | ≤ 0.1 | COc1cc(F)ccc1-c1cccnc1Oc1cnc(N(C)Cc2nccs2)nc1 [I-194, 5-{[3-(4-fluoro-2-methoxyphenyl)pyridin-2-yl]oxy}-N-methyl-N-(thiazol-2-ylmethyl)pyrimidin-2-amine]
27 | ≤ 0.1 | ≤ 0.1 | COc1ccc(-c2cccnc2Oc2cnc(C(F)F)c(C)c2)c(OC)n1 [I-123, 2′-{[6-(difluoromethyl)-5-methylpyridin-3-yl]oxy}-2,6-dimethoxy-3,3′-bipyridine]
28 | ≤ 0.1 | ≤ 0.1 | COc1ncccc1-c1cccnc1Oc1ccc(OCc2ccccc2)nc1 [I-176, 2-{[6-(benzyloxy)pyridin-3-yl]oxy}-2′-methoxy-3,3′-bipyridine]
29 | ≤ 0.1 | ≤ 0.1 | CCCN(C)c1ncc(Oc2ncccc2-c2cccc3c2OCC3)cn1 [I-449]
30 | ≤ 0.1 | ≤ 0.1 | Cc1ccncc1-c1cccnc1Oc1ccc(C(C)(F)F)c(F)c1 [I-305, 2-[4-(1,1-difluoroethyl)-3-fluorophenoxy]-4′-methyl-3,3′-bipyridine]
31 | ≤ 0.1 | ≤ 0.1 | COc1ccc(F)cc1-c1cccnc1Oc1ccc(C(F)(F)F)nc1 [I-11, 3-(5-fluoro-2-methoxyphenyl)-2-{[6-(trifluoromethyl)pyridin-3-yl]oxy}pyridine]
32 | 0.2 to 0.78 (≈ 0.554 to 2.16 µM) | 0.2 to 0.78 (≈ 0.554 to 2.16 µM) | Cc1nn2c(c1-c1cccnc1Oc1ccc(C(F)(F)F)cc1)OCC2 [I-232, 6-methyl-7-{2-[4-(trifluoromethyl)phenoxy]pyridin-3-yl}-2,3-dihydropyrazolo[1,5-b]oxazole]
33 | 0.2 to 0.78 (≈ 0.554 to 2.16 µM) | 0.2 to 0.78 (≈ 0.554 to 2.16 µM) | COc1c(F)cncc1-c1cccnc1Oc1ccc(C(C)(F)F)nc1 [I-98, 2-{[6-(1,1-difluoroethyl)pyridin-3-yl]oxy}-5′-fluoro-4′-methoxy-3,3′-bipyridine]
34 | ≤ 0.1 | ≤ 0.1 | COc1ccccc1-c1cncnc1Oc1ccc(C(C)(F)F)nc1 [I-312, 4-{[6-(1,1-difluoroethyl)-pyridin-3-yl]oxy}-5-(2-methoxyphenyl)pyrimidine]
35 | ≤ 0.1 | ≤ 0.1 | FC(F)(F)c1ccc(Oc2ncccc2-c2cccc3c(Cl)cnn23)cn1 [I-51, 3-chloro-7-(2-{[6-(trifluoromethyl)pyridin-3-yl]oxy}pyridin-3-yl)-pyrazolo[1,5-a]pyridine]
36 | 1.56 to 6.25 | 1.56 to 6.25 | COc1ccccc1-c1cccnc1Oc1cnc2c(c1)CCCC2OC(C)=O (stereo not drawn) [I-139, 3-{[3-(2-methoxyphenyl)pyridin-2-yl]oxy}-5,6,7,8-tetrahydroquinolin-8-yl acetate]
37 | ≤ 0.1 | ≤ 0.1 | COc1c(Cl)cncc1-c1cccnc1Oc1ccc(C(F)(F)F)cc1 [I-211, 5′-chloro-4′-methoxy-2-[4-(trifluoromethyl)phenoxy]-3,3′-bipyridine]
38 | ≤ 0.1 | ≤ 0.1 | COc1ccc(OC)c(-c2cccnc2Oc2ccc(C(C)(F)F)nc2)c1 [I-84, 2-{[6-(1,1-difluoroethyl)pyridin-3-yl]oxy}-3-(2,5-dimethoxyphenyl)pyridine]
39 | ≤ 0.1 | ≤ 0.1 | CCc1ccc(Oc2ncccc2-c2cccnc2OC)cc1 [I-280, 2-(4-ethylphenoxy)-2′-methoxy-3,3′-bipyridine]
40 | 1.56 to 6.25 (≈ 4.18 to 16.7 µM) | 1.56 to 6.25 (≈ 4.18 to 16.7 µM) | COCC(F)(F)c1ccc(Oc2ncccc2-c2cnccc2OC)cn1 [I-349, 2-{[6-(1,1-difluoro-2-methoxyethyl)pyridin-3-yl]oxy}-4′-methoxy-3,3′-bipyridine]
41 | 0.2 to 0.78 (≈ 0.52 to 2.03 µM) | 0.2 to 0.78 (≈ 0.52 to 2.03 µM) | COc1ccccc1-c1cccnc1Oc1ccc(COc2ccccc2)nc1 [I-175, 3-(2-methoxyphenyl)-2-{[6-(phenoxymethyl)pyridin-3-yl]oxy}pyridine]
42 | 1.56 to 6.25 (≈ 2.94 to 11.8 µM) | 1.56 to 6.25 (≈ 2.94 to 11.8 µM) | COc1ccncc1-c1cccnc1Oc1ccc(C(OS(=O)(=O)c2ccc(C)cc2)C(F)(F)F)cc1 (stereo not drawn) [I-248]
43 | ≤ 0.1 | ≤ 0.1 | FC(F)(F)c1ccc(Oc2ncccc2-c2cncc3nccnc23)cc1 [I-227, 8-{2-[4-(trifluoromethyl)phenoxy]pyridin-3-yl}pyrido[3,4-b]pyrazine]
44 | ≤ 0.1 | ≤ 0.1 | CC(F)(F)c1ccc(Oc2ncccc2-c2cccc3c(Cl)cnn23)cn1 [I-116, 3-chloro-7-(2-{[6-(1,1-difluoroethyl)pyridin-3-yl]oxy}pyridin-3-yl)pyrazolo[1,5-a]pyridine]
45 | ≤ 0.1 | ≤ 0.1 | COc1cccc(-c2cccnc2Oc2ccc(C(F)(F)F)nc2)n1 [I-374, 6-methoxy-2′-{[6-(trifluoromethyl)pyridin-3-yl]oxy}-2,3′-bipyridine]
